Laboratory results published in patent US12187706B2, “NLRP3 modulators” (INNATE TUMOR IMMUNITY, INC., priority 2019, dated 2025).

Tests used:
Format in all cases: cell-based
human TLR7 = target: T1, human TLR7 (Homo sapiens, UniProt Q9NYK1); test: In vitro human TLR7 reporter assay (HEK-Blue, NF-kB/AP1-inducible SEAP); details: HEK-Blue TLR7 cells, SEAP reporter; read-out: TLR7 Agonist EC50 value
T1 construct: host or cells: human HEK-Blue cells with NF-kB/AP1-inducible SEAP reporter
T1 sequence (Q9NYK1 27-1049): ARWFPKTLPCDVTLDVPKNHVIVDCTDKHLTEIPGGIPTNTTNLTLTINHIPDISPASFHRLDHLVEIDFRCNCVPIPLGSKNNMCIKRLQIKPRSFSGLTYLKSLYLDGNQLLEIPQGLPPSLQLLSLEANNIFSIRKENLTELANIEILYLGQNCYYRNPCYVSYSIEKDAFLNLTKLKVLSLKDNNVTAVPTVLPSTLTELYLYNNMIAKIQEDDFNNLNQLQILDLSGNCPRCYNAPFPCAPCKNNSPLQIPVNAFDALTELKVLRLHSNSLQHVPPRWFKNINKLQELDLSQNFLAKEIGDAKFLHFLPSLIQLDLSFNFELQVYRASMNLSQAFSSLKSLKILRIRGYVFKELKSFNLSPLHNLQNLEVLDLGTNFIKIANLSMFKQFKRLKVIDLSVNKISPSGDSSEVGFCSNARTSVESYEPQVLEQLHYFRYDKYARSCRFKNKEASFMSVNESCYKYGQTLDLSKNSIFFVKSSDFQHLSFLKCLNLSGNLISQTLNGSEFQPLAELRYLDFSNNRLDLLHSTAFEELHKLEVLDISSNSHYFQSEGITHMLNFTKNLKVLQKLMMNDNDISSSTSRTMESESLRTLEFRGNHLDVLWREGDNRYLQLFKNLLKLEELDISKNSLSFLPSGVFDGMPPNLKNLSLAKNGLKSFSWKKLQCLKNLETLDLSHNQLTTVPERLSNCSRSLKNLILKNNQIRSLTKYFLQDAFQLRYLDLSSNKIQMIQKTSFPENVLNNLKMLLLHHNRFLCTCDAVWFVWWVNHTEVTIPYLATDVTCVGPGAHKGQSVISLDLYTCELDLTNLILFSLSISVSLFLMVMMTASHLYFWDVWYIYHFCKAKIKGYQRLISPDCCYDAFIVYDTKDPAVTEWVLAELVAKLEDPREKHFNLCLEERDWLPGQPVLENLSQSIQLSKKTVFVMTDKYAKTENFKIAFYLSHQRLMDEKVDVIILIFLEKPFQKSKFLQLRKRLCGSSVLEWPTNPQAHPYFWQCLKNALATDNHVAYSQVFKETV
Protocol: (§1) In Vitro Human TLR7 and TLR8 Binding Reporter Assays Logarithmically-growing human HEK-Blue cells co-expressing a TLR7 or TLR8 gene and a NF-kB/AP1-inducible SEAP (secreted embryonic alkaline phosphatase; […] Cellular SEAP production is measured using an Envision plate reader instrument thirty minutes after adding freshly-made Quanti-Blue reagent (prepared by following manufacturer instructions; Invivogen, San Diego, CA) to the HEK-Blue TLR Nf-kB-SEAP cell reactions. All EC50 values (half-maximal effective concentration) are determined using proprietary data analysis software.

NLRP3 = target: T2, NLRP3 (Homo sapiens, UniProt Q96P20); test: Measurement of IL-1β production in PMA-differentiated THP-1 cells (NLRP3 hIL1B)
T2 construct: host or cells: PMA-differentiated THP-1 cells
Summary of the method: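 THP-1 cells differentiated with PMA, then replated in RPMI with 2% FBS and exposed to compound for 4 h (alternative: 2 h; hTRF protocol: 2 h at 37 °C, top concentration 10 μM). Supernatant IL-1β was quantified by ELISA or HTRF. Final DMSO 1%, with vehicle control.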

human TLR8 = target: T3, human TLR8 (Homo sapiens, UniProt Q9NR97); test: In vitro human TLR8 reporter assay (HEK-Blue, NF-kB/AP1-inducible SEAP); details: at 62.5 μM
T3 construct: host or cells: human HEK-Blue cells with NF-kB/AP1-inducible SEAP reporter
T3 sequence (Q9NR97 27-1041): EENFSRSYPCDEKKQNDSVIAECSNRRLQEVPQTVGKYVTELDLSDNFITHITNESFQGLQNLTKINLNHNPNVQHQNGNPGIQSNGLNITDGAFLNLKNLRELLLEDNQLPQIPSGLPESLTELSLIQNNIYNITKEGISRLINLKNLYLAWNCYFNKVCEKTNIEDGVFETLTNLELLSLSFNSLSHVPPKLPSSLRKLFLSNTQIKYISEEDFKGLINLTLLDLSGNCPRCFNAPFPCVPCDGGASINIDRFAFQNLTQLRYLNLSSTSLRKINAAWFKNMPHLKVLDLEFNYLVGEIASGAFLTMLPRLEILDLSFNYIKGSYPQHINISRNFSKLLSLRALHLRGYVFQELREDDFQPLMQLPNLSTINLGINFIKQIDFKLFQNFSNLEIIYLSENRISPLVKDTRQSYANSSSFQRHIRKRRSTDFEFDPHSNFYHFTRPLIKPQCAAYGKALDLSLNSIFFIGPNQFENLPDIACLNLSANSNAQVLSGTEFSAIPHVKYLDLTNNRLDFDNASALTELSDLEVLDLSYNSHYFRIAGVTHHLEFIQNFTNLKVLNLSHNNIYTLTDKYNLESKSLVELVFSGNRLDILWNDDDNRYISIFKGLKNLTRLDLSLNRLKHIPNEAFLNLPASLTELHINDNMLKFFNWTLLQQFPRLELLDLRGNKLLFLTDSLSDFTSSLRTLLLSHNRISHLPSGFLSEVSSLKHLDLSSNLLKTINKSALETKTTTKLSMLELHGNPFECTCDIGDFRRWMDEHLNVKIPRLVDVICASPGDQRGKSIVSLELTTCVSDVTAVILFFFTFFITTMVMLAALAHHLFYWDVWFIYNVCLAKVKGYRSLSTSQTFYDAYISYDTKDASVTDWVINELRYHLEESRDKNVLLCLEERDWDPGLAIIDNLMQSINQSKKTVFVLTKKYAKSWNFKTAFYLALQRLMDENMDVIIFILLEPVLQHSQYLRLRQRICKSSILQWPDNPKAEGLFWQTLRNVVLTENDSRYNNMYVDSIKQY
Protocol: as §1

T2 sequence (Q96P20 whole entry): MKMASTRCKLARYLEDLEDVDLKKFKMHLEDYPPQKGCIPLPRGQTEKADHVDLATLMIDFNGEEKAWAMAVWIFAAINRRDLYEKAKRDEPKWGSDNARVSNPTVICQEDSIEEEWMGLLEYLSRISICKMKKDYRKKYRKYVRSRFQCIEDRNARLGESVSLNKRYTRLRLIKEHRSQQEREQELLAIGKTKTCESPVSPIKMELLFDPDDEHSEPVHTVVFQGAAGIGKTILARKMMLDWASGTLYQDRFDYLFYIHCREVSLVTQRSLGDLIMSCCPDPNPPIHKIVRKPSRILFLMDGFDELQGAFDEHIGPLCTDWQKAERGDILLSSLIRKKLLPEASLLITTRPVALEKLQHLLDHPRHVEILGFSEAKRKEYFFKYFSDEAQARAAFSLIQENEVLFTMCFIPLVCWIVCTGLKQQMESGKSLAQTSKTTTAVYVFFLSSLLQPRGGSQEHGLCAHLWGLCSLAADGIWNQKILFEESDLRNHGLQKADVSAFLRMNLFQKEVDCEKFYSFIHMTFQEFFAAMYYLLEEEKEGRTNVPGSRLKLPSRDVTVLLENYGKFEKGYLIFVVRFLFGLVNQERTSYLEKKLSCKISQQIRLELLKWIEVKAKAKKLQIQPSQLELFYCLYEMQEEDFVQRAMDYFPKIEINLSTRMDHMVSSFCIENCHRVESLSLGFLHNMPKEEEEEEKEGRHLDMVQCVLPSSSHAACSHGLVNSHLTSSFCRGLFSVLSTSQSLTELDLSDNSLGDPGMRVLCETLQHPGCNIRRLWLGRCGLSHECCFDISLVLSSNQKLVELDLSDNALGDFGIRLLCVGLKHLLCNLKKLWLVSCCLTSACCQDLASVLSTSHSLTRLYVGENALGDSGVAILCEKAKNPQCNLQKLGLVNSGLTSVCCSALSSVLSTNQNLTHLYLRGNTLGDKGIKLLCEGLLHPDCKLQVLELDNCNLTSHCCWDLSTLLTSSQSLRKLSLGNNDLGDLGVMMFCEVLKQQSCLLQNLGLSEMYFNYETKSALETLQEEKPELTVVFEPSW

Row | EC50 (human TLR7) [nM] | EC50 (NLRP3) [nM] | TLR8 activity (human TLR8) [%] | Compound
1 | 1000 to 20000 | 690 |  | CCCC(CCO)Nc1nc(N)nc2cc(-c3ccn[nH]3)ccc12 (racemic) [Example 96, rac-3-((2-amino-7-(1H-pyrazol-5-yl)quinazolin-4-yl)amino)hexan-1-ol]
2 | 1000 to 20000 | 740 |  | CCCCC(CCO)Nc1nc(N)nc2cc(-c3ccn[nH]3)ccc12 (racemic) [Example 99, rac-3-((2-amino-7-(1H-pyrazol-5-yl)quinazolin-4-yl)amino)heptan-1-ol]
3 | 1000 to 20000 | 710 |  | CCCC(CCO)Nc1nc(N)nc2cc(-c3ccn[nH]3)ccc12 (single isomer, unassigned) [Example 97, 3-((2-amino-7-(1H-pyrazol-5-yl)quinazolin-4-yl)amino)hexan-1-ol]
4 | 1000 to 20000 | 450 |  | CCCCC(CCO)Nc1nc(N)nc2cc(-c3ccn[nH]3)ccc12 (single isomer, unassigned) [Example 100, 3-((2-amino-7-(1H-pyrazol-5-yl)quinazolin-4-yl)amino)heptan-1-ol]
5 | 20000 to 100000 | 1200 |  | COCC(COC)Nc1nc(N)nc2cc(-c3ccn[nH]3)ccc12 [Example 79]
6 | > 1000 | 200 |  | CCCCNc1nc(N)nc2cc(-c3ccn[nH]3)ccc12 [Example 92]
7 | 1000 to 20000 | 270 |  | CCCCCNc1nc(N)nc2cc(-c3ccn[nH]3)ccc12 [Example 93]
8 | 1000 to 20000 | 710 |  | CCCCCNc1nc(N)nc2cc(-c3cc[nH]n3)cc(F)c12 [Example 125]
9 |  | 2000 |  | Cc1cccc2nc(CNc3nc(N)nc4cc(-c5ccn[nH]5)ccc34)cn12 [Example 161]
10 |  | 1240 |  | CN(C)c1ccc(CNc2nc(N)nc3cc(-c4ccn[nH]4)ccc23)nn1 [Example 164, N4-((6-(dimethylamino)pyridazin-3-yl)methyl)-7-(1H-pyrazol-5-yl)quinazoline-2,4-diamine]
11 |  | 4120 | < 50 | Cn1c(CCNc2nc(N)nc3cc(-c4ccn[nH]4)ccc23)nc2ccccc21 [Example 165]
12 |  | 810 |  | Nc1nc(NC[C@H]2C[C@@H](O)C2)c2ccc(-c3ccn[nH]3)cc2n1 [Example 166]
13 |  | 1240 |  | Nc1nc(NC[C@H]2C[C@H](O)C2)c2ccc(-c3ccn[nH]3)cc2n1 [Example 167]
14 |  | 1280 |  | CCn1cc(CNc2nc(N)nc3cc(-c4ccn[nH]4)ccc23)cn1 [Example 168]
15 |  | 730 |  | Nc1nc(NCc2cnn(-c3ccccc3)c2)c2ccc(-c3ccn[nH]3)cc2n1 [Example 169]
16 |  | 200 |  | Nc1nc(NCc2ncccc2F)c2ccc(-c3ccn[nH]3)cc2n1 [Example 170]
17 |  | 270 |  | Nc1nc(NCc2ccccn2)c2ccc(-c3ccn[nH]3)cc2n1 [Example 171]
18 |  | 2600 |  | COCCN1CCCC1CNc1nc(N)nc2cc(-c3ccn[nH]3)ccc12 (stereo not drawn) [Example 172]
19 |  | 140 |  | CO[C@H]1C[C@H](Nc2nc(N)nc3cc(-c4ccn[nH]4)ccc23)C1 [Example 173]
20 |  | 180 |  | Nc1nc(NCc2cnsc2)c2ccc(-c3ccn[nH]3)cc2n1 [Example 174]

Row | EC50 (human TLR7) [nM] | EC50 (NLRP3) [nM] | TLR8 activity (human TLR8) [%] | Compound
21 |  | 730 |  | Nc1nc(NCc2cncs2)c2ccc(-c3ccn[nH]3)cc2n1 [Example 175]
22 |  | 90 |  | Nc1nc(N[C@H]2C[C@H](CO)C2)c2ccc(-c3ccn[nH]3)cc2n1 [Example 176]
23 |  | 160 |  | Nc1nc(NC2CCC2)c2ccc(-c3ccn[nH]3)cc2n1 [Example 177]
24 |  | 710 |  | CC(C)(C)Nc1nc(N)nc2cc(-c3ccn[nH]3)ccc12 [Example 180]
25 |  | 180 |  | CC(C)(C)CNc1nc(N)nc2cc(-c3ccn[nH]3)ccc12 [Example 181]
26 |  | 130 |  | N#C[C@H]1CC[C@H](Nc2nc(N)nc3cc(-c4ccn[nH]4)ccc23)CC1 [Example 182]
27 |  | 3000 |  | Nc1nc(NOCCO)c2ccc(-c3ccn[nH]3)cc2n1 [Example 186]
28 |  | 230 |  | Nc1nc(NCc2ccn(-c3ccccn3)n2)c2ccc(-c3ccn[nH]3)cc2n1 [Example 187]
29 |  | 8320 |  | COc1cnnc(CNc2nc(N)nc3cc(-c4ccn[nH]4)ccc23)c1 [Example 188]
30 |  | 1410 |  | Cn1cnc(CNc2nc(N)nc3cc(-c4ccn[nH]4)ccc23)n1 [Example 189]
31 |  | 4890 |  | CCn1cc(CNc2nc(N)nc3cc(-c4ccn[nH]4)ccc23)nn1 [Example 190]
32 |  | 460 |  | C[C@]1(O)C[C@@H](Nc2nc(N)nc3cc(-c4ccn[nH]4)ccc23)C1 [Example 191, (cis)-3-((2-amino-7-(1H-pyrazol-5-yl)quinazolin-4-yl)amino)-1-methylcyclobutan-1-ol]
33 |  | 370 |  | C[C@]1(O)C[C@H](Nc2nc(N)nc3cc(-c4ccn[nH]4)ccc23)C1 [Example 192, (trans)-3-((2-amino-7-(1H-pyrazol-5-yl)quinazolin-4-yl)amino)-1-methylcyclobutan-1-ol]
34 |  | 100 |  | Nc1nc(NC2CC2)c2ccc(-c3cc[nH]n3)cc2n1 [Example 193]
35 |  | 210 |  | Nc1nc(NCC2(CN3CCCC3)CC2)c2ccc(-c3cc[nH]n3)cc2n1 [Example 194]
36 |  | 300 |  | Nc1nc(NCC2(CN3CCOCC3)CC2)c2ccc(-c3cc[nH]n3)cc2n1 [Example 195]
37 |  | 230 |  | COCC1(CNc2nc(N)nc3cc(-c4cc[nH]n4)ccc23)CC1 [Example 196]
38 |  | 310 |  | Nc1nc(NCC2(O)CC2)c2ccc(-c3cc[nH]n3)cc2n1 [Example 197]
39 |  | 180 |  | Nc1nc(NCC2(CO)CC2)c2ccc(-c3ccn[nH]3)cc2n1 [Example 204]
